In paper PMC8322070, “A novel orally active HDAC6 inhibitor T-518 shows a therapeutic potential for Alzheimer’s disease and tauopathy in mice” (Scientific Reports, 2021):

Tests used:
[1] = system: acetylated tubulin in hippocampus; experiment: In vivo pharmacodynamics: acetylated tubulin in hippocampus (ELISA); details: 0.3–300 mg/kg orally, 4 h after administration, C57BL/6J mice
Method: (§1) T-518, ACY-738, Ricolinostat, and Tubastatin A were synthesized in Takeda. For in vitro cellular experiments, the compounds were solubilized with DMSO and diluted in the culture medium at the indicated concentrations. For in vivo experiments, the compound was reconstituted in 0.5% methylcellulose and administered orally at the indicated doses. After administration, mouse hippocampus was isolated and homogenized in RIPA extraction buffer (50 mM Tris–HCl, 150 mM NaCl, 1% NP-40, 0.5% sodium deoxycholate, and 0.1% SDS, pH 8.0) supplemented with protease and phosphatase inhibitor cocktail (Thermo Fischer, Waltham, MA, USA). The homogenate was centrifuged at 10,000g for 15 min and the supernatant was taken as the RIPA-soluble fraction.
Acetylated α-tubulin and total tubulin levels were measured by sandwich ELISA. Ninety six-well plates (Microlite2+, Thermo) were coated with α-tubulin capture antibody (1:100) by overnight incubation at 4 °C, washed 4 times with PBS'T, treated with blocking buffer (1% bovine serum albumin in PBS'T) at 37 °C for 2 h, and washed another 4 times with PBS’T. Cell or tissues lysate was added to the wells and plates were incubated at 37 °C for 2 h. […]

[2] = system: tubulin acetylation in WT mice or HDAC6 KO mice; experiment: HDAC6 dependency of in vivo tubulin acetylation, WT and HDAC6 KO mice; set-up: species or system mouse; details: 300 mg/kg
Text: HDAC6 knockout (KO) mice were generated by deletion of a ~ 1.7-kbp region including exon15–20 of the Hdac6 gene using fertilized C57BL/6J eggs and the CRISPR-Cas9 system. […] Male hemizygous KO mice were selected by qPCR detection of the Hdac6 intron16 sequence (Figure S2A). The qPCR primers and probe sequences were as follows: FW primer; 5′-[…]-3′, RV primer; 5′-[…]-3′ and MGB probe; 5′-CCAGGCCATGTTTT-3′.
as §1
Acetylated α-tubulin and total tubulin levels were measured by sandwich ELISA. […]

P301S tau Tg mice = experiment: Novel object recognition test; format: in vivo, mouse; details: 1 and 3 mg/kg for 2 weeks
Method: as §1
The effect of T-518 on behavioral function was examined using the novel object recognition test: The box and objects used were purchased from BrainScience Idea (Osaka, Japan). The 30 × 30 × 35 cm gray-colored test box was used. The two objects used were pyramidal, white-colored, and ceramic (object A and A′) and cylindrical, silver, and aluminum (object B). In the acquisition phase, the identical objects (objects A and A′) were symmetrically placed in the box. Each animal was placed in the box for 5 min followed by a 24-h retention interval in the home cage. […] Time spent exploring the objects were measured during both phases. […]

## O=C1c2cc(-c3nnc(C(F)F)o3)cnc2CN1[C@@H]1CCCC[C@H]1NC(=O)C(F)(F)C(F)(F)F [T-518, N-[(1R,2R)-2-{3-[5-(difluoromethyl)-1,3,4-oxadiazol-2-yl]-5-oxo-5H,6H,7H-pyrrolo[3,4-b]pyridin-6-yl}cyclohexyl]-2,2,3,3,3-pentafluoropropanamide]
[1]
  tubulin acetylation in hippocampi: dose-dependently increased tubulin acetylation
[2]; 27-week-old male HDAC6 KO mice
  tubulin acetylation in HDAC6 KO mice: had no effect
[2]; 27-week-old male WT mice
  tubulin acetylation in WT mice: significantly elevated tubulin acetylation
P301S tau Tg mice
  novel object recognition deficit (preference ratio): dose-dependently ameliorated
